Results on 47 molecules are retold here after the Kinase Knowledgebase extract (Sharma et al. 2016).

The test deals with EGFR (UniProt P00533).

Each structure is given as a SMILES string. In brackets after ≈: the same amount, converted by molar mass.

EGFR, sequence (P00533 whole entry, looked up): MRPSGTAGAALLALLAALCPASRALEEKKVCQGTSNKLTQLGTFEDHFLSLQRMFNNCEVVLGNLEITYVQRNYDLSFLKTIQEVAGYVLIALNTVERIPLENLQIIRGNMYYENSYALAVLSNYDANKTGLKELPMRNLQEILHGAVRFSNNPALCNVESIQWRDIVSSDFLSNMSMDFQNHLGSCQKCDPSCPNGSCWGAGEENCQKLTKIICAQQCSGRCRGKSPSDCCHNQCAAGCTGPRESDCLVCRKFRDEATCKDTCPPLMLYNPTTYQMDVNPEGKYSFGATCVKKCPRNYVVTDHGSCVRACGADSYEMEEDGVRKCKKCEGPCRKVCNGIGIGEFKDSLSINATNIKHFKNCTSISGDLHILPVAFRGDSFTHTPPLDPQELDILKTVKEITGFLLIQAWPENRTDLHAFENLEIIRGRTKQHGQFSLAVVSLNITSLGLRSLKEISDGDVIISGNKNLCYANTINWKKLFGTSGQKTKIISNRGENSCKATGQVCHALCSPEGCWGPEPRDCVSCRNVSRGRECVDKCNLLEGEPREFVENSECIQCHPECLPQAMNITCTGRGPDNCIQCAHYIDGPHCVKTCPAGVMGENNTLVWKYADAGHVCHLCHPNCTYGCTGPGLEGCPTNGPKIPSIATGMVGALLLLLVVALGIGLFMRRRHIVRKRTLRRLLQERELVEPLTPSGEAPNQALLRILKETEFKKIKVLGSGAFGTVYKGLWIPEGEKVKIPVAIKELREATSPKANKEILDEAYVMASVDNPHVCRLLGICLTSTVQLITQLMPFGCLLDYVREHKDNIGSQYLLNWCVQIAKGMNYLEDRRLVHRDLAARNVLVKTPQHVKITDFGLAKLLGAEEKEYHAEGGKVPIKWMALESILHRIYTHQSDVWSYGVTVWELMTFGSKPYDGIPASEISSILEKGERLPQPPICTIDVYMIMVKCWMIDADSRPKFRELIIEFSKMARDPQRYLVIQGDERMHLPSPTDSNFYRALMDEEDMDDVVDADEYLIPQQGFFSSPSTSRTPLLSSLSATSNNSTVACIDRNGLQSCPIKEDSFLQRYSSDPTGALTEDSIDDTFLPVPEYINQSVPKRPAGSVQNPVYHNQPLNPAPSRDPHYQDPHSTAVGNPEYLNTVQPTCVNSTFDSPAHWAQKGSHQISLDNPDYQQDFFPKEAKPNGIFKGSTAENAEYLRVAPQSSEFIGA

For the molecule `COc1cc(Nc2ncnc(Nc3cccc(C)c3)n2)cc(OC)c1OC`, the IC50 is under 0.4 µg/mL.
Under `COc1cc(Nc2ncnc(-n3c(N)nc4ccccc43)n2)ccc1OCCn1ccnn1` stands over 4.5 µg/mL; under `c1ccc(COc2cccc(Nc3ncnc(-c4cccs4)n3)c2)cc1`, over 4.5 µg/mL; under `COc1cc(Nc2ncnc(Nc3cc(-c4ccc(C(=O)N(C)C)cc4)n[nH]3)n2)cc(OC)c1OC`, 0.4 to 2.4 µg/mL (≈ 0.815 to 4.89 µM).
As to `CCOc1ccc(Nc2ncnc(N(C)c3cccc(Cl)c3)n2)cc1OCC`, the IC50 is under 0.4 µg/mL.
On to `COc1cc(Nc2ncnc(Nc3cc(-c4ccco4)n[nH]3)n2)cc(OC)c1OC`, for which the IC50 is under 0.4 µg/mL.
Molecule `COCCOc1ccc(Nc2ncnc(Nc3ccc(C)c(F)c3)n2)cc1OCCOC` displayed an IC50 of over 4.5 µg/mL.
`COc1ccc(-c2cn[nH]c2Nc2ncnc(Nc3cc(OC)c(OC)c(OC)c3)n2)cc1OC` yielded an IC50 of 3.5 to 4.5 µg/mL (≈ 7.3 to 9.38 µM).
Molecule `COc1cc(Nc2ncnc(-n3ccc4ccc(F)cc43)n2)cc(OC)c1OC` displayed an IC50 of over 4.5 µg/mL.
`COc1cc(Nc2ncnc(-n3ccc4cc(F)ccc43)n2)cc(OC)c1OC` returned an IC50 of over 4.5 µg/mL.
`CCN1CCCC1CNc1ncnc(Nc2ccc(OC)c(OC)c2)n1` (configuration not stated) came in with an IC50 of over 4.5 µg/mL.
`CN(C)CCNc1ncnc(Nc2ccc3c(cnn3Cc3ccccc3)c2)n1` registered an IC50 of 0.4 to 2.4 µg/mL (≈ 1.03 to 6.18 µM).
The figure for `COc1cc(Nc2ncnc(Nc3cc(-c4cccc(C)c4)n[nH]3)n2)cc(OC)c1OC` is 0.4 to 2.4 µg/mL (≈ 0.923 to 5.54 µM).
Under `COc1cc(Nc2ncnc(-c3cccnc3NC(C)c3cccc4ccccc34)n2)cc(OC)c1OC` (configuration not stated) stands over 4.5 µg/mL.
`COc1cc(Nc2ncnc(N[C@H]3CCCc4ccccc43)n2)cc(OC)c1OC` gave an IC50 of 3.5 to 4.5 µg/mL (≈ 8.59 to 11 µM).
Molecule `CCc1ccc(Nc2ncnc(-n3c(N)nc4ccccc43)n2)cc1` returned an IC50 of 0.4 to 2.4 µg/mL (≈ 1.21 to 7.24 µM).
The molecule `COc1cc(Nc2ncnc(Nc3nc(C)cs3)n2)cc(OC)c1OC` had an IC50 of 0.4 to 2.4 µg/mL (≈ 1.07 to 6.41 µM).
As to `Cc1ccc(-c2cc(Nc3ncnc(Nc4cc(C)ccc4C)n3)[nH]n2)cc1`, the IC50 was under 0.4 µg/mL.
As to `COc1cc(Nc2ncnc(-n3c(Nc4ccc(C#N)cc4)nc4ccccc43)n2)cc(OC)c1OC`, the IC50 is over 4.5 µg/mL.
The molecule `COc1cc(Nc2ncnc(N3CCc4cc([N+](=O)[O-])ccc43)n2)cc(OC)c1OC` showed a half-inhibitory concentration (IC50) of over 4.5 µg/mL.
The molecule `COc1cc(Nc2ncnc(Nc3ccc(O)cc3)n2)cc(OC)c1OC` came in with an IC50 of 0.4 to 2.4 µg/mL (≈ 1.08 to 6.5 µM).
`COc1ccc(Nc2ncnc(N(C)c3cccc(Cl)c3)n2)cc1OC` had an IC50 of under 0.4 µg/mL.
Under `COc1cc(Nc2ncnc(Nc3cc(-c4ccc(C(=O)NCCc5ccccc5)cc4)n[nH]3)n2)cc(OC)c1OC` stands over 4.5 µg/mL.
As for `CCN(c1cccc(C)c1)c1ncnc(Nc2cc(OC)c(OC)c(OC)c2)n1`, the IC50 is under 0.4 µg/mL.
Turning to `COc1cc(Nc2ncnc(-n3c(=O)sc4cc(Br)ccc43)n2)cc(OC)c1OC`, the IC50 is over 4.5 µg/mL.
In turn, `CCOc1ccc(Nc2ncnc(-n3c(N)nc4ccccc43)n2)cc1OCC` yielded an IC50 of 2.4 to 3.5 µg/mL (≈ 6.13 to 8.94 µM).
For the molecule `COc1cc(Nc2ncnc(Nc3cnc4ccccc4c3)n2)cc(OC)c1OC`, the IC50 lay in the range of 0.4 to 2.4 µg/mL (≈ 0.989 to 5.93 µM).
`COc1cc(Nc2ncnc(N3CCC(O)CC3)n2)cc(OC)c1OC` gave an IC50 of over 4.5 µg/mL.
`COc1cc(Nc2ncnc(Nc3ccc(OCC(=O)Nc4ccccc4)cc3)n2)cc(OC)c1OC`: the IC50 is 0.4 to 2.4 µg/mL (≈ 0.796 to 4.78 µM).
`COc1cc(Nc2ncnc(Nc3ccc(N4CCOCC4)cc3)n2)cc(OC)c1OC`: the concentration for half-maximal inhibition (IC50) was over 4.5 µg/mL.
`O=c1[nH]c2ccccc2n1-c1ncnc(Nc2cnc3ccccc3c2)n1` displayed an IC50 of over 4.5 µg/mL.
With `CN1CCN(Cc2cccc(Nc3ncnc(Nc4cccc5ccccc45)n3)c2)CC1`, the IC50 was over 4.5 µg/mL.
Molecule `NC(=O)c1ccc(Nc2ncnc(-c3cccnc3NCc3cccs3)n2)cc1` showed an IC50 of 0.4 to 2.4 µg/mL (≈ 0.991 to 5.95 µM).
Molecule `COc1ccc(Nc2ncnc(NCCNC(C)=O)n2)cc1OC` returned an IC50 of over 4.5 µg/mL.
As to `Cc1cccc(Nc2ncnc(Nc3ccc(O)cc3)n2)c1`, the IC50 was under 0.4 µg/mL.
The figure for `Nc1nc2ccccc2n1-c1ncnc(Nc2ccc(N3CCOCC3)cc2)n1` is 3.5 to 4.5 µg/mL (≈ 9.01 to 11.6 µM).
Molecule `CCN(CC)c1ccc(Nc2ncnc(N3CCCc4cc(C)ccc43)n2)cc1` yielded an IC50 of over 4.5 µg/mL.
Regarding `Cc1ccc2c(c1)CCCN2c1ncnc(Nc2cccc(Cl)c2C)n1`, the IC50 lay in the range of 2.4 to 3.5 µg/mL (≈ 6.56 to 9.57 µM).
In the case of `COc1cccc(-c2ncnc(Nc3cc(OC)c(OC)c(OC)c3)n2)c1`, the IC50 lay within 2.4 to 3.5 µg/mL (≈ 6.51 to 9.5 µM).
`CCOC(=O)Cc1ccc(Nc2ncnc(-c3ccccc3)n2)cc1` registered an IC50 of over 4.5 µg/mL.
The figure for `COc1cc(Nc2ncnc(Nc3ccc4c(c3)OCO4)n2)cc(OC)c1OC` is 0.4 to 2.4 µg/mL (≈ 1.01 to 6.04 µM); for `Cc1ccc2c(c1)CCCN2c1ncnc(NCCCn2ccnc2)n1` it is over 4.5 µg/mL.
In turn, `COc1cc(Nc2ncnc(NC(=O)NCCc3ccccc3)n2)cc(OC)c1OC` yielded a 50% inhibitory concentration (IC50) of over 4.5 µg/mL.
With `COc1cc(Nc2ncnc(-n3c(NCc4ccc(OC(F)(F)F)cc4)nc4ccccc43)n2)cc(OC)c1OC`, the IC50 was over 4.5 µg/mL.
The molecule `COc1ccc2c(c1)nc(Nc1ccc3[nH]ccc3c1)n2-c1ncnc(Nc2cc(OC)c(OC)c(OC)c2)n1.COc1ccc2nc(Nc3ccc4[nH]ccc4c3)n(-c3ncnc(Nc4cc(OC)c(OC)c(OC)c4)n3)c2c1` showed an IC50 of over 4.5 µg/mL.
In turn, `COCCOc1ccc(Nc2ncnc(-c3ccccc3)n2)cc1` came in with an IC50 of over 4.5 µg/mL.
`COc1cc(Nc2ncnc(-n3ccc4cc(OCc5ccccc5)ccc43)n2)cc(OC)c1OC` showed an IC50 of over 4.5 µg/mL.
